The results in this text go back to ChEMBL document CHEMBL4371048, “Ganocapenoids A-D: Four new aromatic meroterpenoids from Ganoderma capense” (Bioorg Med Chem Lett, 2019).

Activity calls are given as the source filed them. No cut-off for these calls is given here.

What is called IC50 is the concentration at which inhibition is half-maximal. Read a low IC50 as inhibition by little substance.

Data set [1] has as its system PC-12. In words: Neurite-outgrowth promoting activity in NGF-differentiated rat PC12 cells assessed as cell differentiation at 10 uM after 72 hrs by phase contrast microscopic method (reference value: 4.72 +/- 1.18%). Format: functional, cell-based.
Data set [2] addresses Acetylcholinesterase (Homo sapiens, UniProt P22303). In words: Inhibition of AchE (unknown origin) using acetylthiocholine iodide as substrate preincubated for 20 mins followed by substrate addition and measured every 20 secs for 20 times by Ellman's assay.
For data set [3], the system named is HepG2. In words: Increase in LXRalpha mRNA level in human HepG2 cells at 20 to 40 uM after 24 hrs by qPCR analysis. Format: functional, cell-based.
Data set [4] relates to HepG2. Kind of data set: Increase in ABCG1 mRNA level in human HepG2 cells at 20 to 40 uM after 24 hrs by qPCR analysis. It counts as functional, cell-based. For orientation: Quantitative PCR measures a nucleic acid by following its amplification.
Data set [5] relates to HepG2. In words: Increase in PPARgamma mRNA level in human HepG2 cells at 20 to 40 uM after 24 hrs by qPCR analysis. It counts as functional, cell-based.
Data set [6] deals with HepG2. In words: Reduction in lipid accumulation in human HepG2 cells after 24 hrs by Oil-red O staining based microscopic analysis. Format: functional, cell-based.
The test system of data set [7] is HepG2. In words: Decrease in HMGCR mRNA level in human HepG2 cells at 20 to 40 uM after 24 hrs by qPCR analysis. Format: functional, cell-based.
For data set [8], the system named is HepG2. Kind of data set: Increase in ABCG1 expression in human HepG2 cells at 20 to 40 uM after 24 hrs by Western blot analysis. It counts as functional, cell-based. (In general: A western blot detects proteins with antibodies after separation by electrophoresis.)
In data set [9] the test system is HepG2. In words: Decrease in SREBP2 mRNA level in human HepG2 cells at 20 to 40 uM after 24 hrs by qPCR analysis. Format: functional, cell-based.
The subject of data set [10] is HepG2. Kind of data set: Cytotoxicity against human HepG2 cells assessed as effect on cell viability at 10 to 160 uM after 48 hrs by MTT assay. Format: cell-based. To be noted: hepg2, 48 h.
The subject of data set [11] is HepG2. Kind of data set: Decrease in HMGCR expression in human HepG2 cells at 20 to 40 uM after 24 hrs by Western blot analysis. It counts as functional, cell-based.
Data set [12] relates to HepG2. In words: Increase in PPARgamma expression in human HepG2 cells at 20 to 40 uM after 24 hrs by Western blot analysis. Format: functional, cell-based.
Data set [13] relates to HepG2. Kind of data set: Increase in LDLR expression in human HepG2 cells at 20 to 40 uM after 24 hrs by Western blot analysis. It counts as functional, cell-based.

Chain of Acetylcholinesterase (P22303 whole entry): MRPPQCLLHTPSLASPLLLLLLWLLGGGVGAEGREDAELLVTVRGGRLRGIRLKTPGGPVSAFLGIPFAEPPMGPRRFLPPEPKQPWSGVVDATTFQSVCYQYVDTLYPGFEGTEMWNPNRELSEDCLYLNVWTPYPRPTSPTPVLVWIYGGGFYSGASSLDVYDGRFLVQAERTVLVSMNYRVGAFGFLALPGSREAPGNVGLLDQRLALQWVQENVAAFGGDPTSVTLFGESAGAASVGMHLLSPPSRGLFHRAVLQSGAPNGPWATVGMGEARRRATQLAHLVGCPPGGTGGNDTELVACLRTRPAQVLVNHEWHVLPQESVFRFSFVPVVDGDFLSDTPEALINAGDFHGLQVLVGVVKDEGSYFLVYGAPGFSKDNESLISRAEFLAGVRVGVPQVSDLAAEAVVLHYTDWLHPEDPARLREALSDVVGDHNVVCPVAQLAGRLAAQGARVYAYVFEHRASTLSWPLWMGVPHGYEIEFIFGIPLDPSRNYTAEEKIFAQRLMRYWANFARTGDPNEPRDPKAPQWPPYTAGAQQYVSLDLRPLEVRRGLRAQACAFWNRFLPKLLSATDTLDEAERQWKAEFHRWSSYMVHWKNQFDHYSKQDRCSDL

With `O=C(O)CC1(CC(=O)c2cc(O)ccc2O)C=C(CO)CCC1` (stereo not drawn), in [1], the Activity came to 5.97%. In [2], this molecule returned an IC50 of 26 µM.

Consider `CC1(C)Oc2ccc(O)cc2C2=C1CCC(C(=O)O)=C2`, for which the Activity in data set [1] is on record as 4.89%.

Consider `C/C(=C/CCC1=C[C@@H](c2cc(O)ccc2O)OC1=O)CO`, for which the Activity in data set [1] turned out to be 12.31%.

`COC(=O)/C(=C\C(=O)c1cc(O)ccc1O)CC/C=C(\C)CCC=C(C)C`: in [1], the Activity came out at 10.95%. Further, the IC50 in data set [2] worked out at 8.2 µM.

As to `C/C(=C/CC[C@H](CO)c1cc2cc(O)c(O)cc2o1)CO`, in data set [1], the Activity worked out at 7.11%. In data set [2], this molecule returned an IC50 of 28.6 µM.

With `C/C1=C\CCC2=CC(c3cc(O)ccc3O)(OC/C(CO)=C/CC1)OC2=O` (stereo not drawn), the result in data set [3], in data set [4], in data set [5], in [7], in data set [8] and in data set [9] was Active. The result in data set [11], in [12] and in [13] was Active. For the same molecule, the figures for the Activity entry in [6] and in data set [10] were “Dose-dependent effect” and “Non-Toxic”, respectively.

On to `C/C(=C\CCC1=C[C@H](c2cc(O)ccc2O)OC1=O)CCC=C(CO)CO`, for which, in [1], the Activity is recorded as 6.72%.

Consider `C/C(=C/CCC1=C[C@H](c2cc(O)ccc2O)OC1=O)CO`, for which the Activity in [1] was found to be 11.67%.

For `C/C(=C\CCC1=C[C@@H](c2cc(O)ccc2O)OC1=O)CCC=C(CO)CO`, in data set [1], the Activity came out at 6.19%.

On to `COC(=O)/C(=C\C(=O)c1cc(O)ccc1O)CC/C=C(\C)CCC=C(CO)CO`, for which the Activity in [1] stood at 5.32%.
